Literature values, collected in patent US11718578B2, “Ketamine flow synthesis” (Université de Liège, priority 2017, dated 2023).

Molecular target: glutamatergic N-methyl-D-aspartate (NMDA) receptor
Details: non-competitive NMDA receptor antagonist; according to Tyler et al.

In the case of `CN[C@]1(c2ccccc2Cl)CCCCC1=O` [1a, (S)-2-(2-chlorophenyl)-2-(methylamino)-cyclohexanone], the IC50 is listed as 465 nM.
